From patent publication US9157077B2, “Aminopyrimidine kinase inhibitors” (Jasco Pharmaceuticals, LLC, priority 2009, dated 2015) come the findings set out here.

Read-outs that look alike come from different tables or passages of the source.

Common to all, as to type: biochemical
For assay [1], the target named is Enzyme (kinases of Table 29) (Homo sapiens, UniProt P78368). The experiment in a line: Percent Activity of Enzyme When Treated with 300 nM of Compound (ATP present at Km of enzyme), Table 29. Conditions: CK1γ2(h).
Assay [2] deals with Enzyme (kinases of Table 29). Described as above.
For assay [3], the target named is Enzyme (kinases of Table 30). The experiment in a line: IC50 of Compound (nM) (ATP present at Km of enzyme), Table 30. Conditions: ATP present at Km of enzyme.

Enzyme (kinases of Table 29) (Homo sapiens, UniProt P78368), sequence (P78368 whole entry): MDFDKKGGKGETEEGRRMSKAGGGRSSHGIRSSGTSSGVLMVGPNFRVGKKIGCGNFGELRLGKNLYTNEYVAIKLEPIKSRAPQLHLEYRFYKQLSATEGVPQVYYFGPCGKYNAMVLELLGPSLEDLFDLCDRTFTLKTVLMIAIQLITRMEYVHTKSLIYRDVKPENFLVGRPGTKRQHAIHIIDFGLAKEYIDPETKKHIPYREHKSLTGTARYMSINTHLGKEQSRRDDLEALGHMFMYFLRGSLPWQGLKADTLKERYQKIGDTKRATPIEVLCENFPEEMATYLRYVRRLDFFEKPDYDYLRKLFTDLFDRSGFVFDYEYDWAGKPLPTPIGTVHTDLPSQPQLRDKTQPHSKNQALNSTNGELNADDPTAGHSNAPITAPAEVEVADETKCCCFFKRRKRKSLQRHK

The IC50 is the concentration at which inhibition is half-maximal. For the molecule `CN(C)CCOc1cc(/C=C2\SC(=O)NC2=O)nc(N2CCN(S(=O)(=O)c3ccccc3)CC2)n1` [compound 214, (Z)-5-((6-(2-(dimethylamino)ethoxy)-2-(4-(phenylsulfonyl)piperazin-1-yl)pyrimidin-4-yl)methylene)thiazolidine-2,4-dione], the “Percent Activity of Enzyme, CK1γ2(h)” value in assay [1] was determined as 41%. In addition, in assay [2] (CK1(y)), the “Percent Activity of Enzyme, CK1(y)” value came to 79%. In addition, in assay [2] (CK2(h)), the “Percent Activity of Enzyme, CK2(h)” value amounted to 77%. Besides, the “Percent Activity of Enzyme, Pim-1(h)” value in assay [2] (Pim-1(h)) is on record as 25%. The “Percent Activity of Enzyme, Pim-2(h)” value in assay [2] (Pim-2(h)) came to 13%. Further, in assay [2] (Pim-3(h)), the “Percent Activity of Enzyme, Pim-3(h)” value is recorded as 16%. Further, the half-inhibitory concentration (IC50) in assay [3] (Pim-1(h), read-out: IC50 of Compound, Pim-1(h)) was found to be 95 nM; in assay [3] (Pim-2(h), read-out: IC50 of Compound, Pim-2(h)), 35 nM; in assay [3] (Pim-3(h), read-out: IC50 of Compound, Pim-3(h)), 60 nM.
